Source: article PMC11247486, “Improving the In Vivo Stability of [^52Mn]Mn(II) Complexes with 18-Membered Macrocyclic Chelators for PET Imaging” (Journal of Medicinal Chemistry, 2024)

Tests used:
[1] = Serum stability of the 52Mn radiocomplexes, human serum; type: in vitro ADME; conditions: for intact complex / % activity of pellet / % activity of supernatant: 37 °C; for intact complex: 5 days
Procedure: (§1) The ^52Mn radiocomplexes were incubated with human or mouse serum at 37 °C. 50 μL of the radiocomplexes in PBS was combined with 500 μL of serum in triplicate and incubated at 37 °C for over 5 days. At indicated time points, 50 μL of the reaction mixture was removed and proteins were precipitated by addition of 50 μL of methanol. The precipitated proteins were centrifuged before iTLC measurements were performed over a period of 5 days on the supernatant. All the radio-TLC chromatograms for evaluation of stabilities are available in the Supporting Information section as Figures S9–S12.

[2] = Serum stability of the 52Mn radiocomplexes, mouse serum; type: in vitro ADME; conditions: for intact complex / % activity of pellet / % activity of supernatant: 37 °C; for intact complex: 5 days
Procedure: as §1

[3] = DTPA challenge of the radiocomplexes; type: physicochemical; conditions: DTPA (5 equiv), 37 °C
Procedure: (§2) Assessment of the stability and kinetic inertness of the radiocomplexes before in vivo evaluation was conducted to assess the possibilities of transchelation. In vitro stability assays including incubating the radiocomplexes with an excess (100 μM) of biologically relevant metal ions (Mg^2+, Zn^2+, Fe^2+, and Cu^2+), DTPA, and mouse and human serum were conducted.
(§3) For metal challenge studies, a 10 molar excess of 100 μM of metal ions in chloride solutions including CuCl2, ZnCl2, FeCl2, and MgCl2 relative to ligand concentration was incubated with the radiocomplexes at 37 °C. A 5 molar excess of DTPA was also added to compete with ^52Mn in the radiocomplexes. Decomplexation was monitored by radio-iTLC over a period of 5 days.

[4] = Metal challenge of the radiocomplexes; type: physicochemical
Procedure: as §2, §3

[5] = Dynamic PET/CT imaging, SUVmean analysis; type: in vivo; conditions: healthy mice, 1.5 h postinjection
Procedure: (§4) [^52Mn]Mn-CHXPYAN and [^52Mn]Mn-PYAN radiocomplexes were evaluated in vivo through 90 min dynamic PET/CT imaging of heathy mice followed by an ex vivo biodistribution analysis. Similarly, [^52Mn]MnCl2 was also studied as a control.
Regions of interest (ROIs) were manually drawn using CT images to determine the standard uptake value (SUVmean) using VivoQuant imaging software.
(§5) [^52Mn]Mn-CHXPYAN and [^52Mn]Mn-PYAN were synthesized with molar specific activities of 80 and 60 MBq/μmol, respectively. 1.04 ± 0.07 MBq (28 ± 2 μCi) of the radiocomplexes in 100 μL injection doses was prepared. The mice (n = 4 per group) were anesthetized with 2.5% isoflurane in oxygen and were injected via the retroorbital sinus. For comparison purposes, 1.04 ± 0.07 MBq (28 ± 2 μCi) of [^52Mn]MnCl2, pH 7 was also injected. After injection, mice were imaged on a Sofie GNEXT PET/CT scanner for a 90 min dynamic scan (9 frames of 10 min each) followed by a 3 min CT at 80 kVp for anatomical reference. PET images were reconstructed via 3D-OSEM (Ordered Subset Expectation Maximization) algorithm (24 subsets and 3 iterations), with random, attenuation, and decay correction, and CT was reconstructed with the modified Feldkamp algorithm and analyzed using VivoQuant 4.0 (Invicro Imaging Service and Software, Boston MA) software. After imaging, mice were euthanized, and organs were collected, weighed, and counted for associated radioactivity on an automated gamma counter. Radioactivity uptake was calculated as the percent injected dose per gram of tissue (% ID/g). Following the reconstruction of the images, ROIs (heart, liver, kidneys, muscle, and bone) were hand-drawn to determine the SUVs using the VivoQuant imaging software.

[6] = Ex vivo biodistribution after PET/CT; type: in vivo, mice
Procedure: as §4, §5

[7] = healthy mice, 1.5 h postinjection, mean ± SD, n = 4

## [52Mn+2].c1cc2nc(c1)CNCCNCc1cccc(n1)CNCCNC2 [[^52Mn]Mn-PYAN]
[1]
  intact complex: 92.78 ± 1.22%
[2]
  intact complex: 90.67 ± 1.12%
[3]; day 1
  intact complex: 2.32 ± 0.66%
[4]; 10 molar excess of Cu^2+, day 1
  intact complex: < 4%
[4]; 10 molar excess of Zn^2+, day 1
  intact complex: < 4%
[5]
  SUVmean, kidneys: 1.70 ± 0.26
  SUVmean, liver: 0.77 ± 0.14
[6]; [7]
  Biodistribution, Blood: 0.70 ± 0.20 % ID/g
  Biodistribution, Brain: 0.45 ± 0.09 % ID/g
  Biodistribution, Fat: 1.03 ± 0.50 % ID/g
  Biodistribution, Femur: 0.80 ± 0.30 % ID/g
  Biodistribution, Heart: 1.85 ± 0.71 % ID/g
  Biodistribution, Kidney: 63.34 % ID/g
  Biodistribution, Liver: 30.39 ± 11.46 % ID/g
  Biodistribution, Lungs: 1.28 ± 0.51 % ID/g
  Biodistribution, Muscle: 0.18 ± 0.05 % ID/g
  Biodistribution, Pancreas: 2.41 ± 1.60 % ID/g
  Biodistribution, Skin: 0.32 ± 0.18 % ID/g
  Biodistribution, Spleen: 1.33 ± 0.93 % ID/g
  Biodistribution, Stomach: 1.29 ± 0.53 % ID/g
[6]; mouse, in vivo, 1.5 h
  Biodistribution, L. Intestine: 2.69 ± 0.82 % ID/g
  Biodistribution, S. Intestine: 13.00 ± 2.35 % ID/g

## [52Mn+2].c1cc2nc(c1)CN[C@@H]1CCCC[C@H]1NCc1cccc(n1)CN[C@@H]1CCCC[C@H]1NC2 [[^52Mn]Mn-CHXPYAN]
[1]
  intact complex: 98.04 ± 0.18%
[1]; day 1, average
  % activity of pellet: 13.09%
  % activity of supernatant: 86.91%
[1]; day 2, average
  % activity of pellet: 12.54%
  % activity of supernatant: 87.45%
[1]; day 3, average
  % activity of pellet: 14.46%
  % activity of supernatant: 85.54%
[1]; day 4, average
  % activity of pellet: 10.33%
  % activity of supernatant: 89.66%
[1]; day 5, average
  % activity of pellet: 9.31%
  % activity of supernatant: 90.7%
[1]; all time points
  radioactivity associated with the protein pellet: < 15%
[2]
  intact complex: 96.31 ± 1.34%
[2]; day 1, average
  % activity of pellet: 10.33%
  % activity of supernatant: 89.66%
[2]; day 2, average
  % activity of pellet: 10.82%
  % activity of supernatant: 89.18%
[2]; day 3, average
  % activity of pellet: 12.07%
  % activity of supernatant: 87.93%
[2]; day 4, average
  % activity of pellet: 14.33%
  % activity of supernatant: 85.66%
[2]; day 5, average
  % activity of pellet: 12.14%
  % activity of supernatant: 87.67%
[2]; all time points
  radioactivity associated with the protein pellet: < 15%
[3]; day 5
  intact complex: 5.73 ± 0.25%
[4]; 10 molar excess of Cu^2+, day 5
  intact complex: 14.56 ± 1.09%
[4]; 10 molar excess of Zn^2+, day 5
  intact complex: 8.14 ± 1.76%
[5]
  SUVmean, kidneys: 0.20 ± 0.03
  SUVmean, liver: 0.10 ± 0.02
[6]; [7]
  Biodistribution, Blood: 0.14 ± 0.01 % ID/g
  Biodistribution, Brain: 0.03 ± 0.01 % ID/g
  Biodistribution, Fat: 0.11 ± 0.13 % ID/g
  Biodistribution, Femur: 0.09 ± 0.04 % ID/g
  Biodistribution, Heart: 0.21 ± 0.01 % ID/g
  Biodistribution, Kidney: 11.27 ± 1.11 % ID/g
  Biodistribution, L. Intestine: 3.45 ± 1.44 % ID/g
  Biodistribution, Liver: 1.72 ± 0.93 % ID/g
  Biodistribution, Lungs: 0.26 ± 0.12 % ID/g
  Biodistribution, Muscle: 0.02 ± 0.01 % ID/g
  Biodistribution, Pancreas: 0.20 ± 0.09 % ID/g
  Biodistribution, S. Intestine: 2.32 ± 0.83 % ID/g
  Biodistribution, Skin: 0.08 ± 0.04 % ID/g
  Biodistribution, Spleen: 0.22 ± 0.18 % ID/g
  Biodistribution, Stomach: 0.08 ± 0.04 % ID/g
